A value given as a limit tells only on which side of the number the result lay.

As to `CN=C(O)c1cc([N+](=O)[O-])cc([N+](=O)[O-])c1C(=O)O`, the melting point was in the range of 174 to 176 °C.
Then `O=C1NCc2ccccc2C([N+](=O)[O-])N1` (stereo unspecified), with 93 to 95 °C; and `O=S(=O)(CCCCl)Nc1ccc(Oc2cccc3cccnc23)cc1`, with 161 to 162 °C; and `COc1cc(C)cc(OCCCSCCC(=O)O)c1`, with 39 to 42 °C.
In the case of `COc1cc(C=C(C)[N+](=O)[O-])c(OC)c(C)c1C` it was 76 to 81 °C; in that of `CC(=O)OC(CF)c1sccc1S(N)(=O)=O` (stereo unspecified), 97 to 98 °C.
Then `O=CC=CC(=C(c1ccc(F)cc1)c1ccc(F)cc1)n1nnnc1-c1ccccc1`, with 198 to 200 °C.
The molecule `O=[N+]([O-])C=C1NCCCS1` showed a melting point of 76 to 78 °C.
Then `O=c1[nH]nc(-c2ccc(NN=C(c3ccccc3)c3ccc(O)cc3O)cc2)c2ccccc12`, with 160 to 170 °C; and `Cc1ccc(C(=O)Nc2c(NC(=O)CN3CCN(c4ncccn4)CC3)ccc3c2C(=O)c2ccccc2C3=O)cc1`, with 267 to 268 °C; and `CC(=O)OCc1csc(=S)n1CCC(=O)O`, with 144 °C.
Regarding `Cc1ccc(S(=O)(=O)N2C[C@@H](Cl)C[C@@H]2CCl)cc1`, the melting point was in the range of 103 to 105 °C.
Then `Cc1ccccc1N1CCc2cnc3c(C)cccc3c21`, with 109 to 110 °C; and `CCOC(=O)c1c(C(F)(F)F)nc(C(F)F)c(C(=O)OC)c1-n1cccn1`, with 42 to 52 °C.
Then `CC(=O)C1CCC2C3CCC4CC(O)C(Br)CC4(C)C3C(=O)CC12C` (stereo unspecified), with 172 to 173 °C; and `O=C(c1ccccc1O)c1cccc2[nH]ccc12`, with 165 °C; and `CCOC(=O)COc1c(-c2ccccc2)cc(O)cc1-c1ccccc1`, with 91 to 93 °C.
Then `CN(C)C=Nc1nc(OS(=O)(=O)c2ccccc2)ncc1F`, with 124 to 125 °C; and `CN1C(=O)C(C)(C)N=C(c2ccccc2F)c2cc(N3C(=O)NC(C)(C)C3=O)ccc21`, with 286 to 287 °C; and `CSCC[C@H](NC(=O)c1cc(NC(Cn2ccnc2)c2ccc(F)cc2)ccc1CCc1ccc(F)cc1)C(=O)O` (stereo partly specified), with 115 to 120 °C.
For `COc1ccccc1C(=O)NCc1cccc2c1CN(C1CCC(=O)NC1=O)C2=O` (stereo unspecified), the melting point was 236 to 238 °C.
In the case of `NC(=O)NC(=S)NC(=O)c1ccc(Cl)cc1` it was 155 to 158 °C.
Then `O[C@@H]1CCc2ccc(F)cc2C1`, with 59 to 61 °C; and `COC(=O)CSc1cc(NC(=O)OC(C)(C)C)c([N+](=O)[O-])cc1I`, with 110 to 112 °C; and `CCCCNCCNC(=O)Nc1ccccc1C(=O)NCC1CCN(C(c2ccccc2)c2ccccc2)CC1`, with 148 to 150 °C.
`Cc1cccc(-c2nc3ccc(OCCCCl)cc3n2Cc2ccccc2)c1`: the melting point stood at 97 °C.
Then `CC(C)[C@H](NC(=O)OCc1ccccc1)C(=O)OCc1nc2c(N)nc3ccccc3c2n1CCCCNS(C)(=O)=O`, with 99 to 100 °C; and `CCCCCCCCCCCCCCCCCCNC(=O)OCC(CNS(=O)(=O)CCCI)NC(=O)OCCCC` (stereo unspecified), with 96 to 98 °C.
Then `CCNC(=O)Nc1nc2cc(-c3cccnc3)cc(N3CCOCC3)n2n1`, with 298 to 300 °C; and `COC(=O)[C@H](O)[C@@H](NC(=O)OC(C)(C)C)c1ccccc1`, with 130 to 132 °C; and `CC12C=CCC1C1CC=C3CC(O)CCC3(CO)C1CC2` (stereo unspecified), with 169 to 171 °C.
In the case of `CCCCCc1c(C(C)C)nc(C(C)C)c(CO)c1-c1cccc(OC)c1` it was 65 to 66 °C; in that of `Cc1oc(-c2ccccc2)nc1COc1ccc2c(c1)CCC(CO)=C2`, 141 to 142 °C.
The molecule `CC(C)n1nc(-c2[nH]c(=O)c(N)nc2-c2ccccc2)ccc1=O` came in with a melting point greater than 250 °C.
In the case of `CCCn1cc(-c2c(-c3ccccc3F)nn3ccncc23)ccc1=O` it was 127 to 128 °C.
In the case of `COCn1ncc2cc(-c3nnc(SCc4ccc(OC)c(C(F)(F)F)c4)o3)ccc21` it was 158 to 159 °C; in that of `CC(C)CC1OC[C@@H]2CCCN2C1=O` (stereo partly specified), 61 to 65 °C; in that of `O=C(O)CCC(CSc1nc2ccccc2s1)C(=O)O` (stereo unspecified), 152 to 154 °C.
Then `CCCCc1nc(CO)c(S(=O)CC)n1Cc1ccc(-c2ccccc2C(=O)O)cc1` (stereo unspecified), with 240 °C; and `Cc1ccc2c3c1OC(c1ccccc1)N3C(=O)C1CCCN1C2=O` (stereo unspecified), with 158 to 162 °C; and `O=C1NC(=O)C(Sc2ccc(F)cc2)S1` (stereo unspecified), with 99 to 100 °C.
As to `C[C@H]1OC(=O)N[C@@H]1C(=O)NCCO[N+](=O)[O-]`, the melting point was 81.5 to 82.5 °C.
The molecule `Cc1ccc(S(=O)(=O)N2CCCC2c2cccc(F)c2)cc1` (racemic) displayed a melting point of 116 °C.
In the case of `CS(=O)(=O)c1cc(C(F)(F)F)ns1` it was 93 to 94 °C; in that of `CC(CS)C(=O)Nc1cccc(C(=O)O)n1` (stereo unspecified), 178 to 179 °C; in that of `C=CC[C@@H]1CCc2cc(OC)ccc2[C@H]1O` (relative stereo), 63 to 65 °C.
In the case of `CCC1(O)CC(=O)OCc2c1cc1n(c2=O)Cc2cc3cccc(F)c3nc2-1` (stereo unspecified) it was greater than 250 °C.
Then `CCC(OC(C)=O)C(C)[N+](=O)[O-]` (stereo unspecified), with 73 to 75 °C.
`CC(C)Cn1c(=O)n(C)c(=O)c2c(-c3ccccc3F)n(Cc3csc4ccccc34)nc21` came in with a melting point of 55 to 57 °C.
Then `CCCCN1CCC(n2c(=O)[nH]c3ccccc32)CC1`, with 207 to 209 °C; and `CCCC(=O)Oc1cc([N+](=O)[O-])cc([N+](=O)[O-])c1O`, with 65 to 70 °C; and `Cc1cc(C)c2c(c1C)OCC2c1cccc(Br)c1` (stereo unspecified), with 73 to 74 °C.
In the case of `N#CCOc1cc(C(F)(F)F)nc2ccc(-c3cc4ccccc4o3)cc12` it was 174 to 176 °C; in that of `CCOC(=O)c1ccc(CCN(C)CCCC(C#N)(c2ccc(OC)c(OC)c2)C(C)C)cc1` (stereo unspecified), 111 to 112 °C.
Then `O=C(O)c1ccc2c(c1)C(c1ccccc1Cl)=NC=C1N=NC(C3CC3)N12` (stereo unspecified), with 170 to 175 °C.
`Clc1ccc(-c2noc(CCC#Cc3ccccn3)n2)c(Cl)c1`: the melting point was in the range of 77 to 78 °C.
In the case of `Cc1cccc(-c2cc(O)c(Sc3ccccc3C(C)C)c(=O)o2)c1`, the melting point is 161 to 162 °C.
Then `O=C(Nc1cccc2c1C(=O)c1c-2n[nH]c1-c1ccc(C(=O)N2CCC[C@H]2CO)s1)NN1CCOCC1`, with 267 to 268 °C.
In the case of `O=S1(=O)N=CN(C2CC2)c2cccc(Cl)c21` it was 207 to 209 °C.
Then `CC(C)(CO)NC(=O)c1nn(-c2ccc(F)cc2F)c2c1C1CCC2C1` (stereo unspecified), with 142 to 144 °C; and `Nc1cc(-c2ccccc2)cc2ccccc12`, with 103 °C.
Take `CCCCOC1c2ccccc2C(=O)N(CC(C)C)C1(/C=C/C(N)=O)CNC(=O)OC(C)(C)C` (stereo unspecified): the melting point was 149 to 150 °C.
In the case of `CCOC(=O)Cc1c(Br)cnc2c([N+](=O)[O-])cccc12` it was 163 to 164 °C; in that of `CS(=O)(=O)Oc1ccc(-c2c3ccccc3c(C(F)(F)F)c3sc4ccccc4c23)cc1`, 215 to 216 °C; in that of `CCOC(=O)c1[nH]cc2c1NC1=C(C(=O)CNC1)C2c1ccc(Sc2nc3ccc(OC)cc3[nH]2)o1` (stereo unspecified), 248 °C.
Then `Cc1ccc(S(=O)(=O)OC[C@H]2OC(=O)N[C@H]2Cc2ccccc2)cc1`, with 149 to 150 °C; and `CC(C)C1CCN(Cc2ccc(COc3cccc4c3C(=O)N(C3CCC(=O)NC3=O)C4=O)cc2)CC1` (stereo unspecified), with 220 to 222 °C.
In the case of `Cc1n[nH]c2ccc(-c3nn(C(C)c4oc5ccccc5c(=O)c4-c4cccc(F)c4)c4ncnc(N)c34)cc12` (stereo unspecified) it was 254 to 256 °C; in that of `CN(CC(=O)N(C)c1ccc(OCC(=O)N[C@@H](CC(N)=O)C(=O)[C@@H](C(N)c2ccccc2)[C@H](O)C(=O)N2CCC[C@H]2C(=O)NC(C)(C)C)cc1)c1ccccc1` (stereo partly specified), 107 to 112 °C; in that of `Cn1nc2c(c1-c1ccc(Cl)cc1)Cc1ccccc1-2`, 131 to 133 °C.
On to `CC(C)OC(=N)c1sc2ccccc2c1O`, for which the melting point was found to be 208 °C.
Then `CC(C)c1ccc(S(=O)(=O)c2ccc(F)cc2)c(C(C)C)c1`, with 75 to 80 °C; and `CN(C(=O)C1CC1)c1cccc(-c2ccnc3c(C(=O)c4ccco4)cnn23)c1`, with 207 to 209 °C; and `CON1C(C)(C)CC(OC(=O)CCc2cc(-n3nc4ccc(Cl)cc4n3)c(O)c(C(C)(C)C)c2)CC1(C)C`, with 132 to 137 °C.
In the case of `O=C(CN(C(=O)OCc1ccccc1)c1ccc(Cl)cc1)NCCc1ccc(OCc2ccccc2)c(OCc2ccccc2)c1` it was 114 to 116 °C; in that of `CCOC(=O)c1ccc(S(=O)(=O)C(Br)(Br)Br)cc1`, 134 to 136 °C; in that of `CCCC(CC(=O)NC(=O)OC(C)(C)C)Nc1ccc(Cl)cc1` (stereo unspecified), 76 to 77 °C.
`CCCn1nc2c(N)nc3ncccc3c2c1CC(C)(C)O` displayed a melting point of 252 to 255 °C.
Then `O=C(O)COc1cccc(CCc2nc(-c3ccccc3)c(-c3ccccc3)[nH]2)c1`, with 244 to 246 °C; and `C[C@@H]1CSC(=O)[C@@H]2CCCN2C1=O`, with 98 to 101 °C.
In the case of `CN(C)CNS(=O)(=O)c1ccc(-c2cnn(Cc3c(F)c(F)c(F)c(F)c3F)c(=O)c2-c2ccc(F)cc2)cc1` it was 194 to 196 °C; in that of `C=CCOC1=NC2OC(C(=O)c3ccc(Cl)cc3Cl)=C(NC(N)=O)C2C=C1` (stereo unspecified), 222 °C.
In the case of `CS(=O)(=O)c1ccc(-n2nc(C(F)(F)F)cc2-c2ccc(-c3cc4ccccc4o3)cc2)cc1` it was 137 to 138 °C; in that of `Cc1ccc2c(c1)c1c(n2CCCl)C(=O)CCC1`, 108 °C; in that of `COc1ccc2c(n1)C1(CO2)C(=O)N(CC(=O)Nc2ccccc2F)c2ccccc21` (stereo unspecified), greater than 170 °C.
`CC(NS(=O)(=O)c1cc(C(=O)CCl)ccc1Cl)c1ccccc1` (stereo unspecified) showed a melting point of 127 °C.

One may read the melting point as the temperature, or range, at which the solid turns liquid.

The values above are taken from a melting point compilation (Tetko et al.; mined from patent text by program, amines drawn as free bases though some values may be those of a salt).
